Results on 7 compounds are retold here after PubChem BioAssay AID258 (DTP/NCI, 2004).

“And” between values parts separate entries of the source, which are not always exact repeats. Identical values can stand only once. Toxic doses and inconclusive results are not listed.

For this assay, the system named is CD2F1 mice, L1210 leukemia sc, survival T/C. The assay is described as follows: NCI In Vivo Anticancer Drug Screen. Data for tumor model L1210 Leukemia (subcutaneous) in CD2F1 (CDF1) mice. As to conditions: endpoint: median survival time, higher = longer survival. In a few lines: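 Transplantable tumor-bearing mice were treated with compound; survival or tumor size measured and expressed as treated-group value (T) divided by vehicle-treated control value (C).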

The mark [1] stands for this setting: dose: 23.0 mg/kg/injection, schedule: Q01DX Z (sc), vehicle: water.
Where [2] appears, read: dose: 5.0 mg/kg/injection, schedule: Q01DX Z (sc), vehicle: water.
Where [3] appears, read: dose: 8.4 mg/kg/injection, schedule: Q01DX Z (sc), vehicle: water.
Where [4] appears, read: dose: 14.0 mg/kg/injection, schedule: Q01DX Z (sc), vehicle: water.

Consider `COc1cccc2c1C(=O)c1c(O)c3c(c(O)c1C2=O)C[C@@](O)(C(C)=O)C[C@@H]3OC1CC(N)C(O)C(C)O1` (stereo partly drawn), for which the T/C is 97 % of control and 100 % of control (dose: 0.25 mg/kg/injection, schedule: Q01DX009 (ip), vehicle: saline); 98 % of control (dose: 0.25 mg/kg/injection, schedule: Q01DX009 (sc), vehicle: saline); 96 % of control and 98 % of control (dose: 0.5 mg/kg/injection, schedule: Q01DX009 (ip), vehicle: saline); 104 % of control (dose: 0.5 mg/kg/injection, schedule: Q01DX009 (sc), vehicle: saline); 101 % of control and 96 % of control (2×) (dose: 1.0 mg/kg/injection, schedule: Q01DX009 (ip), vehicle: saline); 107 % of control (dose: 1.0 mg/kg/injection, schedule: Q01DX009 (sc), vehicle: saline). Besides, the T/C is, setting by setting: (dose: 1.5 mg/kg/injection, schedule: Q01DX009 (ip), vehicle: saline) 100 % of control; (dose: 2.0 mg/kg/injection, schedule: Q01DX009 (ip), vehicle: saline) 101 % of control and 102 % of control and 98 % of control; (dose: 2.0 mg/kg/injection, schedule: Q01DX009 (sc), vehicle: saline) 109 % of control; (dose: 3.0 mg/kg/injection, schedule: Q01DX009 (ip), vehicle: saline) 97 % of control; (dose: 4.0 mg/kg/injection, schedule: Q01DX009 (ip), vehicle: saline) 98 % of control; (dose: 4.0 mg/kg/injection, schedule: Q01DX009 (sc), vehicle: saline) 120 % of control. In addition, the T/C by setting is: (dose: 16.0 mg/kg/injection, schedule: Q01DX009 (sc), vehicle: saline) 118 % of control; under setting [1], 120 % of control.

As for `Nc1ncnc2c1ncn2C(C=O)OC(C=O)CO` (stereo not drawn), the T/C runs as follows: (dose: 14.0 mg/kg/injection, schedule: Q01DX Z (sc), vehicle: carboxymethylcellulose (CMC)) 100 % of control; (dose: 23.0 mg/kg/injection, schedule: Q01DX Z (sc), vehicle: carboxymethylcellulose (CMC)) 105 % of control; (dose: 39.0 mg/kg/injection, schedule: Q01DX Z (sc), vehicle: carboxymethylcellulose (CMC)) 100 % of control; (dose: 108.0 mg/kg/injection, schedule: Q01DX Z (sc), vehicle: carboxymethylcellulose (CMC)) 111 % of control; (dose: 180.0 mg/kg/injection, schedule: Q01DX Z (sc), vehicle: carboxymethylcellulose (CMC)) 100 % of control.

With `C[n+]1c2ccccc2nc2c(N)cc(N)cc21`, the T/C runs as follows: (dose: 3.0 mg/kg/injection, schedule: Q01DX Z (ip), vehicle: water) 100 % of control; (dose: 5.0 mg/kg/injection, schedule: Q01DX Z (ip), vehicle: water) 100 % of control; under setting [2], 100 % of control; (dose: 8.4 mg/kg/injection, schedule: Q01DX Z (ip), vehicle: water) 100 % of control; under setting [3], 100 % of control; (dose: 14.0 mg/kg/injection, schedule: Q01DX Z (ip), vehicle: water) 100 % of control. For the same compound, the T/C under setting [4] is 100 % of control; the T/C (dose: 23.0 mg/kg/injection, schedule: Q01DX Z (ip), vehicle: water) was 100 % of control; the T/C under setting [1] is 111 % of control; the T/C (dose: 39.0 mg/kg/injection, schedule: Q01DX Z (ip), vehicle: water) was 111 % of control; the T/C (dose: 39.0 mg/kg/injection, schedule: Q01DX Z (sc), vehicle: water) is 111 % of control.

For `CCOC(=O)NP(=O)(N1CC1)N1CC1`, the T/C was 172 % of control under setting [4] and 161 % of control under setting [1].

`Oc1cc(CN(CCCl)CCCl)c(O)cc1CN(CCCl)CCCl`: the T/C is, setting by setting: (dose: 23.4 mg/kg/injection, schedule: Q01DX Z (sc), vehicle: methylcellulose (MC)) 105 % of control; (dose: 38.9 mg/kg/injection, schedule: Q01DX Z (sc), vehicle: methylcellulose (MC)) 110 % of control; (dose: 64.8 mg/kg/injection, schedule: Q01DX Z (sc), vehicle: methylcellulose (MC)) 115 % of control; (dose: 108.0 mg/kg/injection, schedule: Q01DX Z (sc), vehicle: methylcellulose (MC)) 115 % of control; (dose: 180.0 mg/kg/injection, schedule: Q01DX Z (sc), vehicle: methylcellulose (MC)) 105 % of control.

As for `O=c1[nH]c(=O)n(C2CC(O)C(CO)O2)cc1C(F)(F)F` (stereo not drawn), the T/C is 106 % of control (dose: 2.5 mg/kg/injection, schedule: Q01DX009 (ip), vehicle: saline with Tween-80); 114 % of control (dose: 5.0 mg/kg/injection, schedule: Q01DX009 (ip), vehicle: saline with Tween-80); 117 % of control and 121 % of control (dose: 10.0 mg/kg/injection, schedule: Q01DX009 (ip), vehicle: saline with Tween-80); 111 % of control and 122 % of control (dose: 10.0 mg/kg/injection, schedule: Q01DX009 (sc), vehicle: saline); 122 % of control (dose: 13.3 mg/kg/injection, schedule: Q01DX009 (sc), vehicle: saline with Tween-80); 111 % of control (dose: 20.0 mg/kg/injection, schedule: Q01DX009 (sc), vehicle: saline). Besides, the T/C is 153 % of control (dose: 40.0 mg/kg/injection, schedule: Q01DX009 (ip), vehicle: saline with Tween-80); 118 % of control and 123 % of control (dose: 40.0 mg/kg/injection, schedule: Q01DX009 (sc), vehicle: saline); 156 % of control (dose: 60.0 mg/kg/injection, schedule: Q01DX009 (ip), vehicle: saline with Tween-80); 152 % of control (dose: 60.0 mg/kg/injection, schedule: Q01DX009 (sc), vehicle: saline with Tween-80); 150 % of control (dose: 80.0 mg/kg/injection, schedule: Q01DX009 (ip), vehicle: saline with Tween-80); 154 % of control (dose: 80.0 mg/kg/injection, schedule: Q01DX009 (sc), vehicle: saline with Tween-80). Also, the T/C by setting is: (dose: 90.0 mg/kg/injection, schedule: Q01DX009 (sc), vehicle: saline with Tween-80) 167 % of control; (dose: 105.0 mg/kg/injection, schedule: Q01DX009 (sc), vehicle: saline with Tween-80) 150 % of control; (dose: 120.0 mg/kg/injection, schedule: Q01DX009 (sc), vehicle: saline with Tween-80) 158 % of control and 162 % of control; (dose: 135.0 mg/kg/injection, schedule: Q01DX009 (sc), vehicle: saline with Tween-80) 162 % of control; (dose: 160.0 mg/kg/injection, schedule: Q01DX009 (ip), vehicle: saline with Tween-80) 121 % of control; (dose: 160.0 mg/kg/injection, schedule: Q01DX009 (sc), vehicle: saline) 120 % of control. The T/C is 120 % of control (dose: 180.0 mg/kg/injection, schedule: Q01DX009 (sc), vehicle: saline with Tween-80); 161 % of control (dose: 180.0 mg/kg/injection, schedule: Q01DX009 (sc), vehicle: saline); 151 % of control (dose: 211.2 mg/kg/injection, schedule: Q01DX009 (sc), vehicle: saline with Tween-80); 158 % of control (dose: 240.0 mg/kg/injection, schedule: Q01DX009 (sc), vehicle: saline); 108 % of control (dose: 320.0 mg/kg/injection, schedule: Q01DX009 (ip), vehicle: saline with Tween-80); 156 % of control (dose: 320.0 mg/kg/injection, schedule: Q01DX009 (sc), vehicle: saline with Tween-80). Moreover, the T/C reads like this: (dose: 320.0 mg/kg/injection, schedule: Q01DX009 (sc), vehicle: saline) 119 % of control; (dose: 960.0 mg/kg/injection, schedule: Q01DX009 (sc), vehicle: saline with Tween-80) 122 % of control.

Take `CC1CN=C(c2ccc(NC(=O)c3ccc(C(=O)Nc4ccc(C5=NCC(C)N5)cc4)cc3)cc2)N1` (stereo not drawn): the T/C by setting is: (dose: 1.8 mg/kg/injection, schedule: Q01DX Z (sc), vehicle: water) 115 % of control; (dose: 3.0 mg/kg/injection, schedule: Q01DX Z (sc), vehicle: water) 155 % of control; under setting [2], 240 % of control; under setting [3], 255 % of control; under setting [4], 230 % of control.
